The values below come from ChEMBL document CHEMBL4007415, “Thieno[3,2-b]pyrrole-5-carboxamides as New Reversible Inhibitors of Histone Lysine Demethylase KDM1A/LSD1. Part 1: High-Throughput Screening and Preliminary Exploration” (J Med Chem, 2017).

The structures appear in SMILES notation. Active and inactive are the calls of the source. No cut-off for these calls is given here.

Assay [1] relates to THP-1. Description: Induction of apoptosis in human THP1 cells at 0.5 uM after 72 hrs by Annexin V-propidium iodide staining based flow cytometry. The format is functional, cell-based.
For assay [2], the system named is THP-1. Description: Anticlonogenic activity against human THP1 cells assessed as inhibition of colony formation at 0.5 uM after 13 days relative to control. The format is functional. Particulars: THP-1, 312 h.
Assay [3] addresses T1, Amine oxidase [flavin-containing] A (Homo sapiens, UniProt P21397).
T1 sequence (P21397 whole entry): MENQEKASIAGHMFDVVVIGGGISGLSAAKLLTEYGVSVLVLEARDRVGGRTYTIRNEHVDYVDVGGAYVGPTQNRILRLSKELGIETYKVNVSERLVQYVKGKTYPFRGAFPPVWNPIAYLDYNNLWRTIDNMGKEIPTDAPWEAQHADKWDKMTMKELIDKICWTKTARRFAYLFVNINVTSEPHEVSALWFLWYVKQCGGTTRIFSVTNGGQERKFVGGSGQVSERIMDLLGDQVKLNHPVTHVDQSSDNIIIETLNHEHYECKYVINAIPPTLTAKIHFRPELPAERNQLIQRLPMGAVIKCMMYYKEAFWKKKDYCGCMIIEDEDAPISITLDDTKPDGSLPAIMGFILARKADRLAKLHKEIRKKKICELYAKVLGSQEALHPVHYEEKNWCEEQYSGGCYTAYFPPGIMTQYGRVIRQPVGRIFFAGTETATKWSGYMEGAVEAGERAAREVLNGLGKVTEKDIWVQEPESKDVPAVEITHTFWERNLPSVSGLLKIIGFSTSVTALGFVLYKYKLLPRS
Description: Inhibition of recombinant human MAOA incubated for 15 mins measured after 30 mins by luminescence-Glo assay

Assay [4] has as its system THP-1. Description: Induction of cell death in human THP1 cells at 0.5 uM after 72 hrs by propidium iodide staining based flow cytometry. It is filed as functional.
In assay [5] the target is T2, Lysine-specific histone demethylase 2 (Homo sapiens, UniProt Q8NB78).
T2 sequence (Q8NB78 whole entry): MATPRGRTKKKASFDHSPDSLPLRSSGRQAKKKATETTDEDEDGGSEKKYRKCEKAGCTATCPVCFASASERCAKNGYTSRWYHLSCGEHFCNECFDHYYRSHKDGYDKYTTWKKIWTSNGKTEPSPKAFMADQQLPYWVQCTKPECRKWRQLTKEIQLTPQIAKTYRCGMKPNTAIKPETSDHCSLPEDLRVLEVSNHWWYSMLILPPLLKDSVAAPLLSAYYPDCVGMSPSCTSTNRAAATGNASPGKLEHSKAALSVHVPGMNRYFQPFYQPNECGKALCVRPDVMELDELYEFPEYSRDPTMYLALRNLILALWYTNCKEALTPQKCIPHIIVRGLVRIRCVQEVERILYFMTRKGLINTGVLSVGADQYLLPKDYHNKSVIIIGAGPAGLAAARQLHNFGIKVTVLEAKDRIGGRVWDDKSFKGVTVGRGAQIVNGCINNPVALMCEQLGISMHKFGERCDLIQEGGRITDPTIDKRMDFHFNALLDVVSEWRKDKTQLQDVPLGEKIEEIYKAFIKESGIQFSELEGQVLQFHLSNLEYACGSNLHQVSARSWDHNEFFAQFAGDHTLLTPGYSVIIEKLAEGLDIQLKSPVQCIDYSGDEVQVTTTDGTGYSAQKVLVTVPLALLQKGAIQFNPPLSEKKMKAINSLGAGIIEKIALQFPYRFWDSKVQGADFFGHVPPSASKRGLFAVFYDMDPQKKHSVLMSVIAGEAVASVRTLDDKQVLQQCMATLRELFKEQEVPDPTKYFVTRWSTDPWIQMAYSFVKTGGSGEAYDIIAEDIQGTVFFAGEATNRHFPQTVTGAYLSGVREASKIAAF
Description: Inhibition of KDM1B (unknown origin)

Assay [6] concerns the target Lysine-specific histone demethylase 1A (Homo sapiens) (UniProt O60341). Description: Inhibition of KDM1A in human THP1 cells assessed as increase in CD14 mRNA expression level at 1 uM after 24 hrs by qRT-PCR analysis relative to control. It is filed as cell-based.
Assay [7] concerns THP-1. Description: Induction of apoptosis in human THP1 cells at 1 uM after 72 hrs by Annexin V-propidium iodide staining based flow cytometry. It is filed as functional, cell-based.
Assay [8] deals with THP-1. Description: Anticlonogenic activity against human THP1 cells assessed as inhibition of colony formation at 5 uM after 13 days relative to control. The format is functional. Particulars: THP-1, 312 h.
Assay [9] concerns the target Lysine-specific histone demethylase 1A (Homo sapiens) (UniProt O60341). Description: Inhibition of KDM1A in human THP1 cells assessed as increase in CD11b mRNA expression level at 1 uM after 24 hrs by qRT-PCR analysis relative to control. It is filed as cell-based.
For assay [10], the target named is LSD1/CoREST complex (Homo sapiens, UniProt O60341).
Description: Inhibition of recombinant human KDM1A/CoREST complex expressed in Escherichia coli using biotinylated H3K4me1 peptide as substrate preincubated for 20 mins measured after 1 hr by TR-FRET assay
The subject of assay [11] is THP-1. Nature of the assay: Induction of cell death in human THP1 cells at 1 uM after 72 hrs by propidium iodide staining based flow cytometry. It is filed as functional.
Assay [12] has as its target Lysine-specific histone demethylase 1A (Homo sapiens) (UniProt O60341). Nature of the assay: Inhibition of KDM1A in human THP1 cells assessed as increase in CD86 mRNA expression level at 5 uM after 24 hrs by qRT-PCR analysis relative to control. It is filed as cell-based.
For assay [13], the target named is T3, Amine oxidase [flavin-containing] B (Homo sapiens, UniProt P27338).
T3 sequence (P27338 whole entry): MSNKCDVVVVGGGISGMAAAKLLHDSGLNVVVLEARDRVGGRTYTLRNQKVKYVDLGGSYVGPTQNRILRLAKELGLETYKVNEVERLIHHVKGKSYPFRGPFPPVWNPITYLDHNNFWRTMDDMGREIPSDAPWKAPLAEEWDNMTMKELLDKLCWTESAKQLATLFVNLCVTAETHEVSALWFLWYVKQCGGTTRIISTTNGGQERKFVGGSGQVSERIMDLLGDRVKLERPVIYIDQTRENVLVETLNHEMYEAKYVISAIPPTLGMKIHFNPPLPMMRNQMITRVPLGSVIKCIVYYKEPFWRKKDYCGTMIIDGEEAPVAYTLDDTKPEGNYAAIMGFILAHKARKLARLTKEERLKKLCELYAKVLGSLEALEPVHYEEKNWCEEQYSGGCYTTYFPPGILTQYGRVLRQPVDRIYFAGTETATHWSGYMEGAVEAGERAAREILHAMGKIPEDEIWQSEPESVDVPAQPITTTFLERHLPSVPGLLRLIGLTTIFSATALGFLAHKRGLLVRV
Description: Inhibition of recombinant human MAOB incubated for 15 mins measured after 30 mins by luminescence-Glo assay

Take `NC1CCC(N[C@@H]2C[C@H]2c2ccccc2)CC1` (stereo not given in full): the outcome in assay [1] and in assay [4] was inactive. For the same compound, the inhibition at 0.5 µM in assay [2] was 70%. Besides, the values for the IC50 in assay [3] and in [5] were 48.3 µM and 43.4 µM, respectively.

For the compound `Cn1c(C(=O)Nc2cccc(COc3ccc(OC4CCNCC4)cc3)c2)cc2sccc21`, the fold change (FC) in assay [6] is 4.79; in [9] it was 4.61; in assay [12] it was 14.3. Moreover, the outcome in assay [7] and in assay [11] was inactive. Moreover, the inhibition at 5 µM in [8] amounted to 29.5%. The half-maximal inhibitory concentration (IC50) in assay [3] was more than 100 µM; in assay [10] it was 0.16 to 0.162 µM; in assay [5] it was more than 100 µM; in assay [13], 7.16 µM.
